Measurements published in US6951733B2, “Method for testing drug susceptibility of Mycobacterium tuberculosis” (priority 2000, dated 2005).
“And” between values parts separate entries of the source, which are not always exact repeats. Equal entries are not always repeated. Where two headings read alike, the source gives them in different places.

How the values were obtained:
[1] = system: 13 M. tuberculosis pan-susceptible strains; test: MIC determination on HSTB agar, susceptible strains; type: cell-based
[2] = system: ten strains previously identified as INH-resistant; test: microbe, parasite or virus in culture; type: cell-based, M. tuberculosis; conditions: Mycobacterium tuberculosis, HSTB agar; greater than 3.2 eight strains, 1.6 one strain
[3] = system: strain 9719; test: microbe, parasite or virus in culture; type: cell-based, M. tuberculosis; conditions: read-out: MIC (μg/ml) BACTEC
[4] = system: strain H37Rv; type: cell-based, M. tuberculosis
[5] = system: 55 M. tuberculosis clinical isolates; type: cell-based
[6] = system: strain 9719; type: cell-based, M. tuberculosis; conditions: for Proportions (%%) of resistant bacteria as determined by agar plates containing the drug (μg/ml) 300 / Proportions (%%) of resistant bacteria as determined by agar plates containing the drug (μg/ml) 900 / Proportions (%%) of resistant bacteria as determined by agar plates containing the drug (μg/ml) 1200: strain 9719
[7] = strains Susceptible by the BACTEC 300 μg/ml
[8] = strains Susceptible by the BACTEC 900 μg/ml
[9] = 0% of resistant bacteria incorporated
[10] = 10% of resistant bacteria incorporated
[11] = 25% of resistant bacteria incorporated
[12] = 50% of resistant bacteria incorporated
[13] = 100% of resistant bacteria (resistant mutant)

## NNC(=O)c1ccncc1 [INH, isoniazid]
[1]
  critical concentration for detection of the high level of resistance: 1.0 µg/mL
  critical concentration for detection of the low level of resistance: 0.2 µg/mL
[2]
  MIC: > 3.2 µg/mL

## NC(=O)c1cnccn1 [PZA, pyrazinamide]
[3]; Mycobacterium tuberculosis, 9719, pH 6, strain 9719, 0% of resistant bacteria incorporated
  MIC: ≤ 100 µg/mL
[3]; Mycobacterium tuberculosis, 9719, pH 6, strain 9719, 10% of resistant bacteria incorporated
  MIC: > 900 µg/mL
[3]; Mycobacterium tuberculosis, 9719, pH 6, strain 9719, 25% of resistant bacteria incorporated
  MIC: > 900 µg/mL
[3]; Mycobacterium tuberculosis, 9719, pH 6, strain 9719, 50% of resistant bacteria incorporated
  MIC: > 900 µg/mL
[4]
  MIC (μg/ml) Agar: 900 µg/mL and >1200 µg/mL
[5]
  Number of strains by the agar proportion method, 900 μg/ml Resistant: 27
  Number of strains by the agar proportion method, 1200 μg/ml Resistant: 27 and 26
[5]; [7]
  Number of strains by the agar proportion method, 900 μg/ml Resistant: 0
  Number of strains by the agar proportion method, 1200 μg/ml Resistant: 0
[5]; [8]
  Number of strains by the agar proportion method, 900 μg/ml Resistant: 2
  Number of strains by the agar proportion method, 1200 μg/ml Resistant: 1
[6]; pansusceptible strain 9719, all drug-concentrations (300, 900, 1200 μg/ml)
  growth in the agar medium with the drug: completely inhibited
[6]; [9]
  Proportions (%%) of resistant bacteria as determined by agar plates containing the drug (μg/ml) 300: 0%
  Proportions (%%) of resistant bacteria as determined by agar plates containing the drug (μg/ml) 900: 0%
  Proportions (%%) of resistant bacteria as determined by agar plates containing the drug (μg/ml) 1200: 0%
[6]; [10]
  Proportions (%%) of resistant bacteria as determined by agar plates containing the drug (μg/ml) 300: 13.8%
  Proportions (%%) of resistant bacteria as determined by agar plates containing the drug (μg/ml) 900: 8.6%
  Proportions (%%) of resistant bacteria as determined by agar plates containing the drug (μg/ml) 1200: 8.6%
[6]; [11]
  Proportions (%%) of resistant bacteria as determined by agar plates containing the drug (μg/ml) 300: 18.1%
  Proportions (%%) of resistant bacteria as determined by agar plates containing the drug (μg/ml) 900: 16.2%
  Proportions (%%) of resistant bacteria as determined by agar plates containing the drug (μg/ml) 1200: 16.5%
[6]; [12]
  Proportions (%%) of resistant bacteria as determined by agar plates containing the drug (μg/ml) 300: 35.9%
  Proportions (%%) of resistant bacteria as determined by agar plates containing the drug (μg/ml) 900: 36.9%
  Proportions (%%) of resistant bacteria as determined by agar plates containing the drug (μg/ml) 1200: 40.0%
[6]; [13]
  Proportions (%%) of resistant bacteria as determined by agar plates containing the drug (μg/ml) 300: 97.8%
  Proportions (%%) of resistant bacteria as determined by agar plates containing the drug (μg/ml) 900: 96.1%
  Proportions (%%) of resistant bacteria as determined by agar plates containing the drug (μg/ml) 1200: 86.2%
